Assay results as given in paper PMC8623398, “Investigation of the Mechanisms of Cytotoxic Activity of 1,3-Disubstituted Thiourea Derivatives” (Pharmaceuticals, 2021).

Experiments:
SW480 cells [1] = assay: MTT assay, SW480; type: cell-based, human; conditions: 50% growth inhibition
Experimental: (§1) As a first step in assessing their cytotoxic properties, all thioureas of the series were assayed against four human carcinoma cell lines, such as SW480 (primary colon cancer), SW620 (metastatic colon cancer), PC3 (metastatic prostate cancer), and K-562 (chronic myelogenous leukemia), as well as against the normal cell line HaCaT (immortalized human keratinocytes). Table 1 lists the compound concentrations that produced 50% of growth inhibition (IC50, μM), generated by the MTT method, in comparison with two commonly used chemotherapeutic agents, doxorubicin and cisplatin.
The human primary (SW480), metastatic (SW620) colon cancer, metastatic prostate cancer (PC3), chronic myelogenous leukemia (K-562), and human immortal keratinocyte (HaCaT) cell lines were purchased from the American Type Culture Collection (ATCC, Rockville, MD, USA). The cells were cultured in medium according to protocols (MEM for SW480 and SW620, RPMI 1640 for PC3 and K-562, and DMEM for HaCaT cells), supplemented with 10% FBS, penicillin (100 U/mL) and streptomycin (100 μg/mL), and cultured in a 37 °C/5% CO2 humidified incubator. The cells were cultured until appropriate confluence was achieved (80–90%). Next, they were harvested by treatment with 0.25% trypsin (Gibco Life Technologies, Waltham, MA, USA) excluding the non-adherent K-562 cell line and used for studies.
(§2) Cells without the studied compounds in medium were used as a control.
(§3) The cell viability was assessed by determination of MTT salt [3-(4,5-dimethylthiazol-2-yl)-2,5-diphenyltetrazoliumbromide] conversion by mitochondrial dehydrogenase. The MTT assay was performed as previously described. Alternatively, non-adherent leukemic cells were centrifuged in a microplate centrifuge (400× g, 5 min) during the collection stages. Experiments were repeated three times. Cell viability was presented as a percent of MTT reduction in the treated cells versus the control cells. The number of viable cells cultured without the studied compounds was assumed as 100%. A decreased relative MTT level indicated decreased cell viability. Thiourea compounds with the highest cytotoxic potential assessed by MTT determination (with the lowest IC50) were chosen for subsequent assessments of cytotoxicity mechanisms.

SW480 cells [2] = assay: Trypan blue assay, SW480; type: cell-based, human; conditions: SW480, 72 h; for Cell Number × 10^5 / Viability (%): compound at IC50 concentration
Experimental: (§4) In order to estimate the tumor and normal cell population density and their viability after treatment with compounds 1–3, 8, and 9, the trypan blue dye exclusion assay was performed. The live cell number of all cancerous cells incubated for 72 h with the studied thioureas was considerably lower in comparison with the controls (Table 2; Figure S1A). The highest reduction in cell amount was denoted for both colon SW480 and SW620 cells treated with the dichlorophenyl derivative 2, and it accounted for 93%. […] Similarly, a noticeable decline in both colon cancer cell populations was observed after treatment with the ortho-substituted compound 8. The number of live cells equaled 12% and 18%, respectively, as compared to controls. This thiourea also led to a reduction of PC3 cells of 38%, and leukemia K-562 cell lines of 27%. The number of SW620 and PC3 cells decreased by 72% and 63% in the presence of para-substituted compound 9. However, the reducing influence of this thiourea on the number of other cancerous cells was at the level of 21–32%. […] A significant effect on the other studied pathological cells was also noticed and accounted for 32–46%. Furthermore, the derivative 3 reduced the amount of live cancer cells by 32–59%, of which its decreasing impact on colon cancer cells was the greatest.
(§5) The live cell count was assessed by the trypan blue exclusion dye assay using an automated cell counter (CountessTM Invitrogen, Waltham, MA, USA). Untreated cells were used as the control.

SW620 cells = assay: Trypan blue assay, SW620; type: cell-based, human; conditions: SW620, 72 h; for Cell Number × 10^5 / Viability (%): compound at IC50 concentration; for reduction in live cell number: vs control
Experimental: as §4, §5

SW480 cells [3] = assay: Annexin V-FITC/PI flow cytometry, SW480; type: cell-based, human; conditions: SW480, 72 h, IC50 concentration
Experimental: (§6) To estimate the mechanism of anticancer activity of the selected compounds 1–3, 8, and 9, their effect on both early and late apoptosis was evaluated by flow cytometry analysis. […] Additionally, visible late apoptosis-inducing properties in these cell lines were denoted for the compound 9 (47% ± 3.0%), which was twice as strong towards the colon tumor cells mentioned above. The apoptotic properties of analogs 3 and 8 in K-562 cells varied from 30% ± 1.6% to 33% ± 2.3%. […] Whereas the apoptosis-generating influence of derivatives 2 and 3 on normal keratinocytes was higher (29% and 23%), their selectivity measured by MTT methods is favorable. The obtained results are in agreement with the IC50 values assigned to pathological cancer cell lines. The cells were cultured and harvested under the conditions described in Section 3.2.1. […] The effect of these compounds on the process of early and late apoptosis and necrosis was determined as described previously by dual staining with Annexin V:FITC and propidium iodide, according to the manufacturer’s protocol (Becton Dickinson). The cells that were Annexin V:FITC positive and PI negative were identified as early apoptotic, and Annexin V:FITC and PI positive as late apoptotic or necrotic.

[4] = Annexin V-FITC/PI flow cytometry, HaCaT; type: cell-based, human; design: viability at 72 h: concentration or dose not given beside the values; conditions: human, HaCaT cells (normal keratinocytes), representative dot plot, Figure 4E, read-out: LL quadrant, viable cells
Experimental: as §6

IL-6 level, HaCaT cells = assay: IL-6 level ELISA, HaCaT; type: cell-based, human; conditions: 72 h, compound at IC50 concentration
Experimental: Because of the low secretion of IL-6 by leukemic cells compared to solid tumors, and in addition to the lack of IL-6 receptors in K-562 cells, studies of the effect of derivatives 1–3, 8, and 9 on the inhibition of IL-6 release were carried out on primary and secondary solid tumor cells (SW480, SW620, and PC3). A remarkable inhibition of the IL-6 level was denoted for both colon cancer cell lines. Compound 2, identified as the strongest inhibitor, reduced the interleukin level by 54% (in SW480 cells) and 63% (SW620 cells). A significant effect was also observed in these cells for its structural isomer 3 (39% and 23% of inhibition, respectively). Additionally, compound 3 considerably affected the IL-6 level produced by PC3 cells, and reduced it by 33%. Similarly, the treatment with derivative 1 was effective for both colon cancer cells. In its presence, IL-6 release decreased by 28–36%, as compared to controls. For monosubstituted derivatives 8 and 9, the observed IL-6-reducing influence was weaker. They both inhibited IL-6 secretion in SW480 and SW620 cell lines by 25–32%. In contrast to compound 9, thiourea 8 additionally diminished the cytokine level in PC3 cells by 26%.
The IL-6 concentration in all studied cancer cells and normal HaCaT cell lines was measured by an ELISA kit (Diaclon SAS Besancon CEDEX, Besançon, France). […] IL-6 in cell culture supernatant was measured using the enzyme-linked immunosorbent assay in accordance with the manufacturer’s protocol.

[5] = system: SW480, SW620, PC3, K-562 cells; assay: MTT assay, summary over cancer cell lines; type: cell-based; conditions: Homo sapiens, 72 h, depending on the tumor line, read-out: IC50 (range or bound over cancer cell lines)
Experimental: as §1, §2, §3

SMILES	IC50 (SW480 cells [1]; 72 h)	IC50 (SW480 cells [1]; Homo sapiens, SW480, 72 h)	IC50 [5]	Cell Number × 10^5 (SW480 cells [2])	Viability (%) (SW480 cells [2])	Cell Number × 10^5 (SW620 cells)	Viability (%) (SW620 cells)	cells in late apoptosis (SW480 cells [3])	viability at 72 h [4]	IL-6 Concentration (IL-6 level, HaCaT cells)	reduction in live cell number (SW480 cells [2]; IC50 concentration, vs control)	reduction in live cell number (SW620 cells; IC50 concentration)	number of live cells as compared to controls (SW480 cells [2]; IC50 concentration)	decrease of cell viability (SW620 cells; IC50 concentration)	number of live cells as compared to controls (SW620 cells; IC50 concentration)
Fc1ccc(NC(=S)Nc2cccc(C(F)(F)F)c2)cc1Cl [Compound 1, 1-(3-chloro-4-fluorophenyl)-3-[3-(trifluoromethyl)phenyl]thiourea]	12.7 ± 1.53 µM	12.7 to 15.6 µM	≤ 10 µM	2.0 ± 0.30 × 10^5	69 ± 1.30%	1.3 ± 0.25 × 10^5	79 ± 1.30%	60% ± 1.8%	78.2%	8.7 ± 0.03 pg/mL	–	–	–	–	–
FC(F)(F)c1cccc(NC(=S)Nc2ccc(Cl)c(Cl)c2)c1 [Compound 2, 1-(3,4-dichlorophenyl)-3-[3-(trifluoromethyl)phenyl]thiourea]	–	9 ± 1.42 µM	–	0.3 ± 0.35 × 10^5	45 ± 2.40%	0.4 ± 0.22 × 10^5	42 ± 1.30%	95% ± 1.5%	57.6%	9.1 ± 0.03 pg/mL	93%	93%	–	–	–
FC(F)(F)c1cccc(NC(S)=Nc2ccc(Cl)cc2Cl)c1 [Compound 3, 1-(2,4-dichlorophenyl)-3-[3-(trifluoromethyl)phenyl]thiourea]	–	30.1 ± 3.11 µM	≤ 10 µM	1.5 ± 0.10 × 10^5	90 ± 1.30%	2.4 ± 0.20 × 10^5	93 ± 2.33%	–	65.7%	8.9 ± 0.01 pg/mL	–	–	–	–	–

Second part, led by results:

IC50 (SW480 cells [1]; 72 h)	IC50 (SW480 cells [1]; Homo sapiens, SW480, 72 h)	IC50 [5]	SMILES	Cell Number × 10^5 (SW480 cells [2])	Viability (%) (SW480 cells [2])	Cell Number × 10^5 (SW620 cells)	Viability (%) (SW620 cells)	cells in late apoptosis (SW480 cells [3])	viability at 72 h [4]	IL-6 Concentration (IL-6 level, HaCaT cells)	reduction in live cell number (SW480 cells [2]; IC50 concentration, vs control)	reduction in live cell number (SW620 cells; IC50 concentration)	number of live cells as compared to controls (SW480 cells [2]; IC50 concentration)	decrease of cell viability (SW620 cells; IC50 concentration)	number of live cells as compared to controls (SW620 cells; IC50 concentration)
–	8.9 ± 1.14 µM	–	FC(F)(F)c1ccc(NC(=S)Nc2cccc(C(F)(F)F)c2)cc1 [Compound 8, 1-[3-(trifluoromethyl)phenyl]-3-[4-(trifluoromethyl)phenyl]thiourea]	0.4 ± 0.15 × 10^5	90 ± 2.30%	1.0 ± 0.20 × 10^5	55 ± 1.11%	97% ± 1.2%	70.1%	9.1 ± 0.06 pg/mL	–	–	12%	45%	18%
–	38.1 ± 4.38 µM	≤ 10 µM	FC(F)(F)c1cccc(NC(=S)Nc2ccc(Cl)cc2)c1 [Compound 9, 1-(4-chlorophenyl)-3-[3-(trifluoromethyl)phenyl]thiourea]	2.5 ± 0.12 × 10^5	72 ± 2.25%	1.6 ± 0.11 × 10^5	84 ± 3.08%	24% ± 0.4%	79.5%	9.0 ± 0.01 pg/mL	–	72%	–	–	–
